Measurements published in patent publication US6132944A, “Photographic element containing high dye-yield couplers” (Eastman Kodak Company, priority 1999, dated 2000).
Read-outs that look alike come from different tables or passages of the source. One block for each molecule: values may come before it.

Assays:
[1] = pKa by spectrophotometric titration in aqueous Triton X-100; type: physicochemical; conditions: for pKa: Table I; for pKa (Sol. group): Table II; for pK1: first ionization, sulfonamide in conjugation with naphthalene; for pK2: second sulfonamide (in conjugation with the phenyl ring)
Protocol: In the following examples, the pKa values were determined by standard procedures using spectrophotometric titration of the compounds of interest. The spectrophotometric technique involves measuring the absorption spectra of the compound of interest in a range of buffer solutions. The absorption data (optical densities, ODobsd) can then be used to determine the corresponding pKa value(s) according to eq 1-3
ODobsd=ODHnA +ODHn-1A + (1)
=b[HnA]εHnA +b[Hn-1A]εHn-1A (2)
=b[total]fHnA εHnA +b[total]fHn-1A
Typically, the experimental constants (b and [total]) are combined with the extinction coefficient (ε) and expressed as the maximum optical density (ODmax) for a given species. Eq 3 then becomes,
=ODmaxHnA fHnA +ODmaxHn-1A fHn-1A (4)
The fraction of a given species (f) is a function of the pH and pKa values.
For example, for a system with one titratable proton eq 5-6,
Thus, the pKa and ODmax values can be determined from a set of XY pair data (pH, ODobsd) using a non linear least squares fit.
This technique relies on a difference in extinction coefficient between the species of interest at a given wavelength. This can be seen by inspection as a change in the absorption spectrum over a given pH range. In addition to this macroscopic data, (the experimental pKa values), the spectrophotometric technique can also provide microscopic information, i.e., information about the relationship between the individual titratable groups and the pKa values. In this manner, a pKa value may be attributed to titration of a particular group in a molecule, e.g., a solubilizing group.
The absorption spectra over a range of pH values and pKa values for the model sulfonamides such as Comp-11 and Comp-8 (defined for the examples hereinafter) as well as the coupler Comp-12 may be plotted. In model sulfonamide Comp-11 (pK 6.65), the optical density change resulting from ionization of the sulfonamide which is in conjugation with the naphthalene group may be pinpointed. Model sulfonamide Comp-8 comprises the entire solubilizing group pK1 7.03, pK2 10.00). […] Finally, in the spectrophotometric titration of the coupler Comp-12, the ionization of both sulfonamides in the solubilizing group as well as ionization of the coupling site pK1 6.85, pK2 9.85, pK3 10.84) can be seen.
In practice, a stock solution of the appropriate compound (1×10^-4 M) and Triton X-100 (1.2%) in water was prepared. The Triton X-100 (CAS Registry No. [9002-93-1], polyoxyethylene(10) isooctylcyclohexyl ether) was obtained from Aldrich Chemical Co. and used as received.
To 1.50 mL of the appropriate phosphate buffer (μ=0.75) were added 1.50 mL of the stock solution. The solution was agitated to ensure adequate mixing, and its absorption spectrum and pH were measured. A non linear least squares method was then used to fit the data to a one, two, or three pKa value model as appropriate.

[2] = Table II, cited from earlier work
[3] = sol group, aqueous Triton X-100

pKa at the coupling site ([1]; Example 2): 10.3
pKa (Sol. group) ([1]; aqueous Triton X-100): 8.8
SMILES: COc1ccccc1NC(=O)CC(=O)c1cccc(NS(=O)(=O)c2ccc(C)cc2)c1 [Comp-10]

pKa [1, 3]: 8.7
SMILES: COc1ccc(C(=O)C(OC(=O)N(c2ccc(C=C(C#N)c3nc4cc(C(C)(C)CC(C)(C)C)ccc4o3)c(C)c2)C2CCCC2)C(=O)Nc2cc(NS(=O)(=O)c3ccc(O)cc3)ccc2Cl)cc1 (stereo not drawn) [Inv-3]

pKa (Sol. group) ([1]; aqueous Triton X-100): 8.1
SMILES: CC(=O)Nc1cc(NS(=O)(=O)c2ccc(O)cc2)ccc1Cl [Comp-20]

pKa (Sol. group) ([1]; aqueous Triton X-100): 8.7
SMILES: CC(=O)c1cccc(NS(=O)(=O)c2ccc(C)cc2)c1 [Comp-9]

pKa ([1]; inferred from Comp-5 and Comp-6): 8.8
SMILES: CCCN(C(=O)OC(C(=O)Nc1ccccc1OC)C(=O)c1cccc(NS(=O)(=O)c2ccc(C)cc2)c1)c1ccc(C=C(C#N)c2nc3c(C)cc(C)cc3s2)c(C)c1 (stereo not drawn) [Comp-4]

pKa [1, 3]: 8.9
SMILES: CCCCN(C(=O)OC(C(=O)Nc1ccccc1OC)C(=O)c1cccc(NS(=O)(=O)c2ccc(C)cc2)c1)c1ccc(C=C(C#N)c2nc3cc(C(C)(C)CC(C)(C)C)ccc3o2)c(C)c1 (stereo not drawn) [Comp-6]

pKa [1, 3]: 7.9
SMILES: CCN(C(=O)OC(C(=O)Nc1cc(NS(=O)(=O)c2ccc(NS(C)(=O)=O)cc2)ccc1Cl)C(=O)c1ccc(OC)cc1)c1ccc(C=C(C#N)c2nc3cc(C(C)(C)CC(C)(C)C)ccc3o2)c(C)c1 (stereo not drawn) [Inv-7]

pKa (Sol. group) ([1]; aqueous Triton X-100): 9.5
SMILES: CCCCCCCCCCCCCCCCS(=O)(=O)Nc1ccc(Cl)c(NC(C)=O)c1 [Comp-17]

pK1 [1]: 7.03
pK2 [1]: 10.00
SMILES: CS(=O)(=O)Nc1ccc(S(=O)(=O)Nc2ccc(Cl)cc2)c2ccccc12 [Comp-8]

pKa [1, 3]: 7.9
SMILES: Cc1cc(N(C(=O)OC(C(=O)Nc2cc(NS(=O)(=O)c3cccc(NS(C)(=O)=O)c3)ccc2Cl)C(=O)C(C)(C)C)C2CCCC2)ccc1C=C(C#N)c1nc2cc(C(C)(C)CC(C)(C)C)ccc2o1 (stereo not drawn) [Inv-9]

pKa [1, 3]: 8.8
SMILES: CCCCCCCN(C(=O)OC(C(=O)Nc1ccccc1OC)C(=O)c1cccc(NS(=O)(=O)c2ccc(C)cc2)c1)c1ccc(C=C(C#N)c2nc3ccc(C)cc3o2)c(C)c1 (stereo not drawn) [Comp-5]

pKa (Sol. group) ([1]; aqueous Triton X-100): 6.6
pK ([1]; sulfonamide in conjugation with the naphthalene group): 6.65
SMILES: CN(C)S(=O)(=O)c1ccc(NS(C)(=O)=O)c2ccccc12 [Comp-11]

pKa [1, 3]: 8.8
SMILES: Cc1cc(N(C(=O)OC(C(=O)Nc2cc(NS(=O)(=O)c3ccc(O)cc3)ccc2Cl)C(=O)C(C)(C)C)C2CCCC2)ccc1C=C(C#N)c1nc2cc(C(C)(C)CC(C)(C)C)ccc2o1 (stereo not drawn) [Comp-21]

pKa (Sol. group) ([1]; aqueous Triton X-100): 6.8
pK1 [1]: 6.85
pK2 [1]: 9.85
pK3 ([1]; third ionization): 10.84
SMILES: CC(C)(C)C(=O)CC(=O)Nc1cc(NS(=O)(=O)c2ccc(NS(C)(=O)=O)c3ccccc23)ccc1Cl [Comp-12]

The remaining lines, values behind:

SMILES: COc1ccc(C(=O)C(OC(=O)N(c2ccc(C=C(C#N)c3nc4cc(C(C)(C)CC(C)(C)C)ccc4o3)c(C)c2)C2CCCC2)C(=O)Nc2cc(NS(=O)(=O)c3ccccc3NS(C)(=O)=O)ccc2Cl)cc1 (stereo not drawn) [Inv-10]
pKa [1, 3]: 6.1

SMILES: CCCCCCCCCCCCCCCCNS(=O)(=O)c1ccc(Cl)c(NC(=O)C(OC(=O)N(CCCCCCCCCCCC)c2ccc(C=C(C#N)c3nc4ccccc4o3)c(C)c2)C(=O)c2ccc(OC)cc2)c1 (stereo not drawn) [Comp-3]
pKa [1, 3]: 13

SMILES: CCN(C(=O)OC(C(=O)Nc1cc(NS(=O)(=O)c2ccccc2NS(C)(=O)=O)ccc1Cl)C(=O)c1ccc(OC)cc1)c1ccc(C=C(C#N)c2nc3cc(C(C)(C)CC(C)(C)C)ccc3o2)c(C)c1 (stereo not drawn) [Inv-8]
pKa [1, 3]: 6.1

SMILES: CCCCCCCCCCCCCCCCNS(=O)(=O)c1ccc(Cl)c(NC(=O)C(OC(=O)N(CCCC)c2ccc(C=C(C#N)c3nc4ccccc4o3)c(C)c2)C(=O)c2ccc(OC)cc2)c1 (stereo not drawn) [Comp-2]
pKa [1, 3]: 13

SMILES: CCCCCCCCCCCCCCCCS(=O)(=O)Nc1ccc(Cl)c(NC(=O)CC(=O)C(C)(C)C)c1 [Comp-16]
pKa (Sol. group) ([1]; aqueous Triton X-100): 9.4

SMILES: Cc1cc(N(C(=O)OC(C(=O)Nc2cc(NS(=O)(=O)c3ccc(O)c(NS(C)(=O)=O)c3)ccc2Cl)C(=O)C(C)(C)C)C2CCCC2)ccc1C=C(C#N)c1nc2cc(C(C)(C)CC(C)(C)C)ccc2o1 (stereo not drawn) [Inv-1]
pKa [1, 3]: 7.2

SMILES: CCN(C(=O)OC(C(=O)Nc1cc(NS(=O)(=O)c2ccc(NS(C)(=O)=O)c3ccccc23)ccc1Cl)C(=O)c1ccc(OC)cc1)c1ccc(C=C(C#N)c2nc3cc(C(C)(C)CC(C)(C)C)ccc3o2)c(C)c1 (stereo not drawn) [Inv-5]
pKa [1, 3]: 6.7

SMILES: CNS(=O)(=O)c1ccccc1 [Comp-18]
pKa (Sol. group) ([2]; in water (King)): 11.43

SMILES: CS(=O)(=O)c1ccc(O)cc1 [Comp-7]
pKa (Sol. group) ([2]; in water (Bordwell and Cooper)): 7.8

SMILES: Cc1cc(N(C(=O)OC(C(=O)Nc2cc(NS(=O)(=O)c3ccc(NS(C)(=O)=O)cc3O)ccc2Cl)C(=O)C(C)(C)C)C2CCCC2)ccc1C=C(C#N)c1nc2cc(C(C)(C)CC(C)(C)C)ccc2o1 (stereo not drawn) [Inv-6]
pKa [1, 3]: 7.4

SMILES: CCCCCCCCCCCCCCCCS(=O)(=O)Nc1ccc(Cl)c(NC(=O)C(OC(=O)N(CC)c2ccc(N=Nc3ccc(C(=O)OCCCCCCCCCCCC)cc3)cc2)C(=O)C(C)(C)C)c1 (stereo not drawn) [Comp-1]
pKa [1, 3]: 9.5

SMILES: CCN(C(=O)OC(C(=O)Nc1cc(NS(=O)(=O)c2c(NS(C)(=O)=O)ccc3ccccc23)ccc1Cl)C(=O)c1ccc(OC)cc1)c1ccc(C=C(C#N)c2nc3cc(C(C)(C)CC(C)(C)C)ccc3o2)c(C)c1 (stereo not drawn) [Inv-4]
pKa [1, 3]: 6.5

SMILES: CCCCCCCCCCCCCCCCNS(=O)(=O)c1ccccc1 [Comp-19]
pKa (Sol. group) ([1]; aqueous Triton X-100): 13.0
